Tests used:
[1] = system: Giardia lamblia trophozoites; assay: Antigiardial activity on G. lamblia trophozoites, trypan blue dye exclusion; type: cell-based; conditions: Giardia duodenalis, 48 h at 37 °C, pH 7.4, trypan blue
Procedure: Giardia lamblia WB strain (ATCC number 30957) was grown in a modified TYI-S-33 medium supplemented with 10% fetal bovine serum. The parasite was cultivated in 15 mL screw-capped borosilicate glass tubes containing 13 mL medium. The tubes were incubated on a 15° horizontal slant at 37 °C. Giardia was harvested from confluent culture by chilling the tubes on ice for 5‒10 min to detach cells, followed by centrifugation at 800× g for 5 min.
The antigiardial activity of the prepared compounds was tested as described. One milligram of a test compound was dissolved in 10 L of DMSO and topped up with 1 mL growth medium. The solution was filter-sterilized using 0.22-m syringe filters and the appropriate volumes of the solutions were taken to prepare the concentration of each compound in 1.5 mL microtubes. For each preparation, concentrations of 500, 250, 125, 62, and 31 µg/mL were prepared in a final volume of 1.5 mL. Each tube was inoculated with 5 × 10^4 trophozoites of G. lamblia and then incubated for 48 h at 37 °C. After incubation, 75 L of the treated trophozoites were subcultured individually for another 48 h in a fresh medium free of compounds. At the end of this period, the viable trophozoites were counted. Each compound was assayed in duplicate in three independent experiments. In each assay, appropriate controls were also tested, including a sample without compound and another with DMSO.
The parasites in each tube were counted using a standard hemocytometer at 10× objective. In each count, trypan blue was employed to distinguish live parasites from dead ones. To permit detachment of Giardia, the tubes were placed on ice for 10 min and the parasites were then centrifuged at 800× g for 10 min. The supernatant was discarded and 1 mL fresh medium was added to each tube. The final suspension was prepared by mixing 25 μL of the parasite suspension in each tube with 100 μL of 0.4% trypan blue in phosphate-buffered saline (PBS). The 50% inhibitory concentration (IC50) was employed as a parameter for biological activity. The IC50 is the concentration of compounds that cuts the number of parasites to half that in the negative control (growth medium + DMSO + parasites). Lastly, the 50% inhibitory concentration (IC50) was calculated.

[2] = biological target: T1, triosephosphate isomerase (TPI) (Giardia intestinalis, UniProt P36186); assay: Intrinsic fluorescence of TPI; conditions: for Decrease of maximum intrinsic fluorescence intensity of TPI: compared to the TPI enzyme free of compounds; for Maximum intrinsic fluorescence intensity of TPI: compound at IC50 concentration, TPI without inhibitors 161 a.u. at 330 nm
T1 construct: His-tag (TEV-cleavable) (cleaved yes); made in house
Procedure: Changes in tertiary structure were analyzed following the intrinsic and extrinsic fluorescence of the TPI enzyme in a Perkin-Elmer LS-55 spectrofluorometer (Perkin-Elmer, Wellesley, MA, USA). The TPI protein was adjusted at 0.1 mg/mL in 50 mM phosphate buffer (buffer P), pH 7.4n, and incubated with the four synthesized compounds by 2 h at 37 °C. After the TPI protein was incubated with the synthesized compounds, the samples were excited at 280 nm and we recorded the emission spectra from 300 to 500 nm with a scan speed of 150 nm/min and using excitation and emission slits of 5 and 4 nm, respectively. Furthermore, we determined the extrinsic fluorescence of the TPI enzyme in the presence of the four compounds by 8-anilinonaphthalene-1-sulfonic acid (ANS) assay to monitor changes in the hydrophobic regions of the protein. The protein was incubated in the same conditions as the intrinsic fluorescence assay. Then, we recorded the fluorescence spectra from 400 to 600 nm in the presence of 25 mM of ANS dissolved in methanol at 25 °C with a scanning rate of 150 nm/min. The samples were excited to 395 nm using slits of excitation and emission of 10 nm, respectively. The final spectrum was the average of five scans. Later, each spectrum was subtracted from the spectra of the blank (buffer P solution containing each of the compounds plus ANS).

T1 sequence (P36186 whole entry): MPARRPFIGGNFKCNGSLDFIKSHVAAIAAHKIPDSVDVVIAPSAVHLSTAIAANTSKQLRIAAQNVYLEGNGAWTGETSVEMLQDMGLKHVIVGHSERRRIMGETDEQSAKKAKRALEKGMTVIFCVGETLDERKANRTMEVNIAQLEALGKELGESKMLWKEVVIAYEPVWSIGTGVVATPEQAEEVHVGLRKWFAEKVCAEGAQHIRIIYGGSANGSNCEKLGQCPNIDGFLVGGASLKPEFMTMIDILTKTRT

Row | SMILES | IC50 [1] [µM] | Decrease of maximum intrinsic fluorescence intensity of TPI [2] [%] | Maximum intrinsic fluorescence intensity of TPI [2] [a.u.]
1 | Cc1c(OCC(F)(F)F)ccnc1C[S+]([O-])c1nc2ccc([N+](=O)[O-])cc2[nH]1 (stereo not drawn) [O2N-BZM9, 2-{[3-methyl-4-(2,2,2-trifluoroethoxy)pyridin-2-yl]methanesulfinyl}-5-nitro-1H-benzimidazole] | 17 | 55 | 72.6
2 | Cc1c(OCC(F)(F)F)ccnc1C[S+]([O-])c1nc2ccccc2[nH]1 (stereo not drawn) [Lansoprazole, 2-{[3-methyl-4-(2,2,2-trifluoroethoxy)pyridin-2-yl]methanesulfinyl}-1H-benzimidazole, reference compound] | 45 | 25 | 123
3 | O=[N+]([O-])c1ccc2nc([S+]([O-])Cc3ccccn3)[nH]c2c1 (stereo not drawn) [O2N-BZM7, 5-nitro-2-[(pyridin-2-yl)methanesulfinyl]-1H-benzimidazole] | 14 | 33 | 107
4 | COc1c(C)cnc(C[S+]([O-])c2nc3ccccc3[nH]2)c1C (stereo not drawn) [H-BZM2, 2-[(4-methoxy-3,5-dimethylpyridin-2-yl)methanesulfinyl]-1H-benzimidazole] | 36 | 75 | 40.1

From article PMC7504735, “Enhanced Antigiardial Effect of Omeprazole Analog Benzimidazole Compounds” (Molecules, 2020)
